The record followed here is patent publication US8420309B2, “Method of screening compounds using CALHM (FAM26C)” (The Feinstein for Medical Research, priority 2007, dated 2013).

This experiment has as its system CALHM1. The experiment is described as follows: CALHM1 N-glycosylation, western blot of transfected HEK293 cells. The experiment is classed as cell-based, human. The note with it: HEK293 cells transfected with Myc-CALHM1 for six hours, 10 μg/ml tunicamycin, anti-Myc WB. As to the method:
Western blotting (WB) and immunoprecipitation (IP) assays. For WB, cells were washed with PBS and solubilized in ice-cold HEPES buffer (25 mM HEPES, pH 7.4, 150 mM NaCl, 1X Complete protease inhibitor cocktail, Roche) containing 1% SDS. Ten micrograms of extracts was analyzed by SDS-PAGE. A standard ECL detection procedure was then used. For multimerization analyses and IP, cells were harvested six hours after transfection with the indicated CALHM1 cDNAs. Cells were then solubilized for 2 h at 4° C. in HEPES buffer containing 1% Nonidet P-40. Cell extracts were pre-cleared by centrifugation at 10,000 rpm for 5 min. For multimerization analyses, cell extracts were analyzed by WB in the absence (non-reducing conditions) or presence of 5% β-mercaptoethanol (reducing conditions). For IP, supernatants were immunoprecipitated with immobilized anti-Myc antibody, as per supplier's instructions (ProFound Mammalian c-Myc Tag IP Kit, Pierce). Total extracts and immunoprecipitated proteins were then analyzed by WB.
CALHM1 deglycosylation. […] CALHM1-transfected HT-22 cells were solubilized and incubated for 16 h at 37° C. in digestion buffer (50 mM NaH2PO4, pH 7.4, 20 mM EDTA, 0.2% SDS, and 1% β-mercaptoethanol) in the absence or presence of PNGase F. Cell lysates were then analyzed by WB using anti-Myc antibody, as described above.
On the technique in general: In western blotting, separated proteins are transferred to a membrane and probed.

Turning to tunicamycin, the “appearance of the CALHM1 band of higher molecular weight (N-glycosylated form)” value was “completely inhibited”.
